Laboratory results as given in PMC9950143 (Scientific Reports, 2023).

Tests used:
Rhinovirus 16 = assay: CPE assay, H1 HeLa cells; assay type: cell-based; details: Rhinovirus 16 [H1 HeLa]
HCV GT1b replicon = assay: HCV subgenomic replicon Renilla luciferase assay, Huh-7-lunet; assay type: cell-based, hepatitis C virus; details: Hepatitis C (1b) [Huh-7-lunet]
Marburg (Nganda) = assay: microbe, parasite or virus in culture; assay type: cell-based, Marburg virus
West Nile (NY99) = assay: microbe, parasite or virus in culture; assay type: cell-based, West Nile virus
HCV GT2a replicon = assay: HCV subgenomic replicon Renilla luciferase assay, Huh-7-lunet; assay type: cell-based, hepatitis C virus; details: Hepatitis C (2a) [Huh-7-lunet]
Ebola virus (Kikwit) = assay: microbe, parasite or virus in culture; assay type: cell-based
MDCK cells = assay: Compound cytotoxicity by MTS dye reduction; details: MDCK; listed as Influenza B (B/Brisbane/60/2008)
[1] = Compound cytotoxicity by MTS dye reduction; details: dog, MDCK cells
Rhinovirus 14 = assay: CPE assay, H1 HeLa cells; assay type: cell-based; details: Rhinovirus 14 [H1 HeLa]
[2] = tested on: hepatitis E virus (GT3-Kernow C1 p6/Luciferase replicon); assay: HEV replicon Gaussia luciferase assay, Huh-7; assay type: cell-based; details: Hepatitis E GT3 Kernow C1 p6/Luc replicon [Huh-7]
Enterovirus 71 = assay: CPE assay, RD cells; assay type: cell-based; details: Enterovirus 71 [RD]
[3] = tested on: Influenza A (A/California/07/2009); assay: CPE assay, MDCK cells; assay type: cell-based; details: Influenza A virus; Influenza A (A/California/07/2009) [MDCK]; read-out: Antiviral activity EC50
Marburg (Drandema) = assay: microbe, parasite or virus in culture; assay type: cell-based, Marburg virus
Zika virus (MR766) = assay: microbe, parasite or virus in culture; assay type: cell-based
SUDV Boniface = assay: microbe, parasite or virus in culture; assay type: cell-based, Sudan virus; details: Sudan ebolavirus, HeLa; n = 9; read-out: RDV activity against SUDV EC50
MARV Ci67 [4] = assay type: cell-based, Marburg virus
[5] = Cytotoxicity by nuclei count in HDV assay; details: human, Huh7-NTCP cells (HDV assay)
Dengue 3 virus (H87) = assay: microbe, parasite or virus in culture; assay type: cell-based
[6] = tested on: all MARV and Ravn virus (RAVV) isolates tested; assay: microbe, parasite or virus in culture; assay type: cell-based, Marburg virus; details: Filoviridae, HeLa, read-out: EC50 values against all MARV and RAVV isolates tested
HDV genotype 1 virus = assay: HDV infection assay (HDAg immunofluorescence), Huh7-NTCP cells; assay type: cell-based, hepatitis delta virus; details: Hepatitis D (Huh7-NTCP)
all SUDV isolates tested = assay: microbe, parasite or virus in culture; assay type: cell-based; details: Sudan ebolavirus, HeLa, read-out: EC50 values against all SUDV isolates tested
Sudan virus (Boneface) = assay: microbe, parasite or virus in culture; assay type: cell-based
[7] = tested on: hepatitis B virus (HBV; AD38 strain); assay: microbe, parasite or virus in culture; assay type: cell-based; details: Hepatocyte, read-out: Antiviral activity EC50
MARV Ci67 [8] = assay: organism not typed; assay type: cell-based, Marburg virus; details: HeLa; n = 9; read-out: RDV activity against MARV EC50
Dengue 3 virus (VN32) = assay: microbe, parasite or virus in culture; assay type: cell-based; details: Dengue 3 virus (VN32) [Huh-7]
[9] = tested on: Influenza B (B/Brisbane/60/2008); assay: CPE assay, MDCK cells; assay type: cell-based; details: Influenza B virus; Influenza B (B/Brisbane/60/2008) [MDCK]; read-out: Antiviral activity EC50
Rhinovirus A2 = assay: CPE assay, H1 HeLa cells; assay type: cell-based
OC43 = details: different cells and/or assay protocols, read-out: Previously reported activity EC50; cited from earlier work
Enterovirus 68D = details: listed as Enterovirus 68D; different cells and/or assay protocols; read-out: Previously reported activity EC50; cited from earlier work
[10] = tested on: Japanese encephalitis (14–14-2); assay: microbe, parasite or virus in culture; assay type: cell-based; details: Japanese encephalitis (14–14-2) [Huh-7]
[11] = Cytotoxicity, CellTiter-Glo, 96 h (229E protocol); details: human, H1 HeLa cells
[12] = Multiplex cytotoxicity (calcein AM) in HCV replicon assay; details: human, Huh-7-lunet HCV genotype 2a replicon cells
[13] = tested on: Dengue 1 virus (Djibouti); assay: microbe, parasite or virus in culture; assay type: cell-based
[14] = Filoviridae, HeLa, read-out: Antiviral activity EC50
[15] = Dengue virus, Huh-7, read-out: Antiviral activity EC50

## CCC(CC)COC(=O)[C@H](C)N[P@](=O)(OC[C@H]1O[C@@](C#N)(c2ccc3c(N)ncnn23)[C@H](O)[C@@H]1O)Oc1ccccc1 [RDV, Remdesivir]
Rhinovirus 16; Enterovirus, n = 1, read-out: Antiviral activity EC50
  EC50: 750 nM
Rhinovirus 16
  Selectivity index (SI) = CC50/EC50: > 13
HCV GT1b replicon
  Selectivity index (SI) = CC50/EC50: > 225
HCV GT1b replicon; Hepatitis C virus, GT1B, read-out: Antiviral activity EC50
  EC50: 89 ± 47 nM
Marburg (Nganda)
  Selectivity index (SI) = CC50/EC50: > 104
Marburg (Nganda); [14]
  EC50: 24 ± 4 nM
West Nile (NY99)
  Selectivity index (SI) = CC50/EC50: 668
West Nile (NY99); West Nile virus, Huh-7, n = 1, read-out: Antiviral activity EC50
  EC50: 50 nM
HCV GT2a replicon
  Selectivity index (SI) = CC50/EC50: 236
HCV GT2a replicon; Hepatitis C virus, GT2A, read-out: Antiviral activity EC50
  EC50: 72 ± 13 nM
Ebola virus (Kikwit)
  Selectivity index (SI) = CC50/EC50: > 36
Ebola virus (Kikwit); Zaire ebolavirus, HeLa, read-out: Antiviral activity EC50
  EC50: 70 ± 8 nM
MDCK cells
  CC50: > 100000 nM
[1]
  CC50: > 100000 nM
Rhinovirus 14; Enterovirus, read-out: Antiviral activity EC50
  EC50: 385 ± 318 nM
Rhinovirus 14
  Selectivity index (SI) = CC50/EC50: > 26
[2]
  Selectivity index (SI): Low (When minimal RDV antiviral activity is observed for a particular virus, low SI is indicated)
[2]; Hepatitis E virus, read-out: Antiviral activity EC50
  EC50: > 2070 nM
Enterovirus 71
  Selectivity index (SI) = CC50/EC50: 24
Enterovirus 71; Enterovirus A, n = 1, read-out: Antiviral activity EC50
  EC50: 140 nM
[3]
  EC50: > 50000 nM
Marburg (Drandema)
  Selectivity index (SI) = CC50/EC50: > 74
Marburg (Drandema); [14]
  EC50: 34 ± 4 nM
Zika virus (MR766)
  Selectivity index (SI) = CC50/EC50: 29
Zika virus (MR766); Zika virus, Huh-7, read-out: Antiviral activity EC50
  EC50: 1150 ± 30 nM
SUDV Boniface
  EC50: 308 nM
MARV Ci67 [4]
  maximum fold reduction of RDV EC50 in the presence of favipiravir: ≥ tenfold
[5]
  CC50: 8000 to 10000 nM
Dengue 3 virus (H87)
  Selectivity index (SI) = CC50/EC50: 196
Dengue 3 virus (H87); [15]
  EC50: 170 ± 70 nM
[6]
  EC50: 24 to 68 nM
HDV genotype 1 virus
  Selectivity index (SI): Low (When minimal RDV antiviral activity is observed for a particular virus, low SI is indicated)
HDV genotype 1 virus; Hepatitis delta virus, read-out: Antiviral activity EC50
  EC50: > 5000 nM
All SUDV isolates tested
  EC50: 120 to 240 nM
Sudan virus (Boneface)
  Selectivity index (SI) = CC50/EC50: > 21
Sudan virus (Boneface); Sudan ebolavirus, HeLa, n = 1, read-out: Antiviral activity EC50
  EC50: 120 nM
[7]
  EC50: > 1000 nM
MARV Ci67 [8]
  EC50: 109 nM
Dengue 3 virus (VN32)
  Selectivity index (SI) = CC50/EC50: 278
Dengue 3 virus (VN32); n = 1, read-out: Antiviral activity EC50
  EC50: 120 nM
[9]
  EC50: > 50000 nM
Rhinovirus A2
  Selectivity index (SI) = CC50/EC50: > 22
Rhinovirus A2; Rhinovirus A, n = 1, read-out: Antiviral activity EC50
  EC50: 450 nM
OC43
  EC50: 96 to 150 nM
Enterovirus 68D
  EC50: 100 to 1000 nM
[10]
  Selectivity index (SI) = CC50/EC50: 98
[10]; Japanese encephalitis virus, n = 1, read-out: Antiviral activity EC50
  EC50: 340 nM
[11]
  CC50 at 96 h: > 50000 nM
[12]
  CC50: 17000 ± 3000 nM
[13]
  Selectivity index (SI) = CC50/EC50: 108
[13]; [15]
  EC50: 310 ± 90 nM
